Laboratory results: US20060089371A1, “Phenyl or heteroaryl amino alkane derivatives as ip receptor antagonist” (Bayer HealthCare AG, priority 2002, published 2006)
pIC50: −log10 of the molar value.

What was measured:
[1] = target: T1, IP receptor (Homo sapiens, UniProt P43119); assay: IP receptor binding/cAMP in HEL cells ([3H]-iloprost binding, Assay 1; iloprost-induced cAMP production, Assay 2); conditions: compounds of about 40 to 90% purity, read-out: In vitro activity grade (IC50 class)
T1 construct: one million cells in 160 μl aliquot of cell suspension were put in a well of 96 well plate; host or cells: HEL 92.1.7 human erythroleukemia cells (whole cells)
Protocol: [Measurement of the [^3H]-iloprost Binding to HEL Cells] (Assay 1)
A human erythloleukemia cell line, HEL 92.1.7, was purchased from American Type Culture Correction and maintained in RPMI-1640 medium (Gibco BRL) supplemented with 10% fetal calf serum (FCS), 2 mM glutamine, 4.5 g/L glucose, 10 mM Hepes, 1 mM sodium pyruvate, 100 U/ml penicillin, and 100 μg/ml streptomycin in a humidified 5% CO2 atmosphere at 37° C. Cells were collected with centrifugation and washed with binding assay buffer (BAB: 50 mM Tris-HCl, 5 mM MgCl2 (pH 7.5)). Cells were suspended at the density of 6.25×10^6 cells/ml in BAB, and one million cells in 160 μl aliquot of cell suspension were put in a well of 96 well plate (Falcon). Then, 20 μl of compound solution, 100 μM of iloprost (for non-specific binding), or buffer alone (total binding), diluted with 1% DMSO in BAB was added. Finally, another 20 μl containing [^3H]-iloprost (0.02 μCi, 0.5-1 pmol) in BAB was added and incubated at room temperature for 30 min with a gentle shaking. Cell suspension was then transferred to a well of MultiScreen plate with GF/C glass filters (Millipore) to harvest cells. Cells were washed twice with 200 μl of ice-cold BAB and the plate was kept at 55° C. for 30 min to dry filters. The filter in the well was punched out to a counting tube and 2 ml of Ultima Gold XR (Packard) was added. [^3H]-radio activity in the filter was measured by a liquid scintillation counter (Beckman, USA).
[Iloprost-Induced cAMP Production Assay in HEL Cells] (Assay 2)
HEL cells were collected with centrifugation and washed with cAMP assay buffer (CAB: Hank's balanced salt solution, 17 mM Hepes, 0.1% bovine serum albumin, 1 mM IBMX, 0.4% DMSO, and 1 mM L-ascorbic acid sodium salt (pH 7.4)). Cells were suspended at the density of 2.5×10^5 cells/ml in CAB, and twenty thousand cells in 80 μl aliquot of cell suspension were put in a well of 96 well plate (Falcon). Then, 10 μl of compound solution diluted with 1% DMSO in CAB or buffer alone was added. The plate was incubated at 37° C. for 30 min. Then, another 10 μl containing 100 nM iloprost in CAB or buffer alone was added and further incubated at 37° C. for 30 min. cAMP content in the well was measured by a cAMP ELISA kit (Applied Biosystems, USA).
The data corresponds to the compounds as yielded by solid phase synthesis and thus to levels of purity of about 40 to 90%. For practical reasons, the compounds are grouped in three classes of activity as follows: IC50=A<0.1 μM≦B<1 μM≦C

T1 sequence (P43119 whole entry): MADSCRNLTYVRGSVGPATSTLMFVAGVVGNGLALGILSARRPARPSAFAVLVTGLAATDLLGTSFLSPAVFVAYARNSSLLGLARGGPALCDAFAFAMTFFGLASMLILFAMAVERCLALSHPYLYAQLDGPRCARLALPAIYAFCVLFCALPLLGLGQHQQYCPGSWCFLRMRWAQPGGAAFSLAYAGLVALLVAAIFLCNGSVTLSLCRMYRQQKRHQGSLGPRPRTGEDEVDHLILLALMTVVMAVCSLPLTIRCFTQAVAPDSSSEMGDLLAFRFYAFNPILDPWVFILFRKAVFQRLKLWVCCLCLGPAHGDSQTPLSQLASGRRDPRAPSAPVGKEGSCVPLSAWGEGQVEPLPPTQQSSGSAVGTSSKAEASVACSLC

Row | pIC50 [1] | melting point | Structure (SMILES)
1 | > 7.00 | 186 °C | O=C(O)C(Cc1ccc(F)cc1)Nc1cc(-c2ccc(OCc3ccccc3)cc2)ncn1 (stereo not shown) [Example 1-12]
2 | > 7.00 | 187 °C | CCCCC(Nc1cc(-c2ccc(OCc3ccccc3)cc2)ncn1)C(=O)O (stereo not shown) [Example 1-13]
3 | > 7.00 | 226 to 228 °C | O=C(O)C(CCc1ccccc1)Nc1cc(-c2ccc(OCc3ccccc3)cc2)ncn1 (stereo not shown) [Example 1-14]
4 | 6.00 to 7.00 | 244 to 246 °C | CC(C)CC(Nc1cc(-c2ccc(OCc3ccccc3)cc2)ncn1)C(=O)O (stereo not shown) [Example 1-15]
5 | 6.00 to 7.00 | 235 to 237 °C | CC(C)C(Nc1cc(-c2ccc(OCc3ccccc3)cc2)ncn1)C(=O)O (stereo not shown) [Example 1-16]
6 | > 7.00 | 210 °C | CSCCC(Nc1cc(-c2ccc(OCc3ccccc3)cc2)ncn1)C(=O)O (stereo not shown) [Example 1-17]
7 | 6.00 to 7.00 | 158 °C | CC(Nc1cc(-c2ccc(OCc3ccccc3)cc2)ncn1)C(=O)O (stereo not shown) [Example 1-18]
8 | > 7.00 | 187 °C | CC(Cc1ccccc1)(Nc1cc(-c2ccc(OCc3ccccc3)cc2)ncn1)C(=O)O (stereo not shown) [Example 1-19]
9 | > 7.00 | 145 to 146 °C | O=C(O)C(Cc1ccccc1)Nc1ncnc(-c2ccc(OCc3ccccc3)cc2)c1F (stereo not shown) [Example 1-20]
10 | > 7.00 | 150 to 153 °C (dec.) | O=C(O)C(Cc1ccc(Cl)cc1)Nc1cc(-c2ccc(OCc3ccccc3)cc2)ncn1 (stereo not shown) [Example 1-22]
11 | > 7.00 | 155 °C | C#CCC(Nc1cc(-c2ccc(OCc3ccccc3)cc2)ncn1)C(=O)O (stereo not shown) [Example 1-23]
12 | 6.00 to 7.00 | 138 °C | CS(=O)(=O)CCC(Nc1cc(-c2ccc(OCc3ccccc3)cc2)ncn1)C(=O)O (stereo not shown) [Example 1-24]
13 | > 7.00 | 211 °C | O=C(O)C(Cc1ccc([N+](=O)[O-])cc1)Nc1cc(-c2ccc(OCc3ccccc3)cc2)ncn1 (stereo not shown) [Example 1-25]
14 | > 7.00 | 233 to 236 °C | O=C(O)C(Cc1ccc(O)cc1)Nc1cc(-c2ccc(OCc3ccccc3)cc2)ncn1 (stereo not shown) [Example 1-26]
15 | 6.00 to 7.00 | 211 to 214 °C | CC(O)C(Nc1cc(-c2ccc(OCc3ccccc3)cc2)ncn1)C(=O)O (stereo not shown) [Example 1-27]
16 | > 7.00 | 135 to 137 °C | C=CCC(Nc1cc(-c2ccc(OCc3ccccc3)cc2)ncn1)C(=O)O (stereo not shown) [Example 1-28]
17 | > 7.00 | 145 °C | Nc1ccc(CC(Nc2cc(-c3ccc(OCc4ccccc4)cc3)ncn2)C(=O)O)cc1 (stereo not shown) [Example 1-29]
18 | > 7.00 | 186 to 188 °C | O=C(O)C(Cc1ccccc1)Nc1ncnc(-c2ccc(OCc3ccccc3)cc2)n1 (stereo not shown) [Example 1-30]
19 | > 7.00 | 218 to 223 °C | O=C(O)C(Cc1ccccn1)Nc1cc(-c2ccc(OCc3ccccc3)cc2)ncn1 (stereo not shown) [Example 1-31]
20 | > 7.00 | 156 to 158 °C | O=C(O)C(CC(F)(F)F)Nc1cc(-c2ccc(OCc3ccccc3)cc2)ncn1 (stereo not shown) [Example 1-32]
21 | > 7.00 | 132 to 135 °C | O=C(O)C(COCc1ccccc1)Nc1cc(-c2ccc(OCc3ccccc3)cc2)ncn1 (stereo not shown) [Example 1-33]
22 | > 7.00 | 115 to 120 °C | COCC(Nc1cc(-c2ccc(OCc3ccccc3)cc2)ncn1)C(=O)O (stereo not shown) [Example 1-34]
23 | < 6.00 | 265 to 267 °C | CC(Cc1cccc(O)c1)(Nc1cc(-c2ccc(OCc3ccccc3)cc2)ncn1)C(=O)O (stereo not shown) [Example 1-35]
24 | > 7.00 | 170 to 173 °C | O=C(O)C(Cc1ccccc1)Nc1ncnc(-c2ccc(OCC3CC3)cc2)c1F (stereo not shown) [Example 1-36]
25 | 6.00 to 7.00 | 183 to 188 °C | O=C(O)C(Cc1c[nH]cn1)Nc1cc(-c2ccc(OCc3ccccc3)cc2)ncn1 (stereo not shown) [Example 1-39]

Row | pIC50 [1] | melting point | Structure (SMILES)
26 | > 7.00 | 166 to 169 °C | O=C(O)C(Cc1ccc(Cl)cc1)Nc1cc(-c2ccc(OCC3CC3)cc2)ncn1 (stereo not shown) [Example 1-40]
27 | 6.00 to 7.00 | 100 to 104 °C | CCCCC(Nc1cc(-c2ccc(OCC3CC3)cc2)ncn1)C(=O)O (stereo not shown) [Example 1-41]
28 | > 7.00 | 126 to 128 °C | O=C(O)C(Cc1ccc(F)cc1)Nc1cc(-c2ccc(OCC3CC3)cc2)ncn1 (stereo not shown) [Example 1-42]
29 | < 6.00 | 150 to 152 °C | O=C(O)C(Cc1ccccc1)Nc1cc(-c2cccc(OCc3ccccc3)c2)ncn1 (stereo not shown) [Example 1-43]
30 | 6.00 to 7.00 | 105 to 107 °C | O=C(O)C(Cc1ccccn1)Nc1cc(-c2ccc(OCC3CC3)cc2)ncn1 (stereo not shown) [Example 1-44]
31 | > 7.00 | 177 to 178 °C | O=C(O)C(Cc1ccccn1)Nc1ncnc(-c2ccc(OCc3ccccc3)cc2)c1F (stereo not shown) [Example 1-45]
32 | > 7.00 | 107 °C | O=C(O)C(Cc1ccccn1)Nc1cc(-c2ccc(OCc3ccccc3)c(F)c2)ncn1 (stereo not shown) [Example 1-46]
33 | > 7.00 | 117 to 120 °C | O=C(O)C(Cc1ccccc1)Nc1cc(-c2ccc(OCc3ccccc3)c(F)c2)ncn1 (stereo not shown) [Example 1-47]
34 | > 7.00 | 188 to 192 °C | O=C(O)C(Cc1cccnc1)Nc1cc(-c2ccc(OCc3ccccc3)cc2)ncn1 (stereo not shown) [Example 1-48]
35 | < 6.00 | 180 to 185 °C | O=C(O)[C@H](Cc1ccccc1)Nc1cc(-c2ccc(OCC3CC3)cc2)ncn1 [Example 1-49]
36 | 6.00 to 7.00 | 150 to 155 °C | O=C(O)[C@H](Cc1ccccc1)Nc1cc(-c2ccc(OCc3ccccc3)cc2)ncn1 [Example 1-50]
37 | 6.00 to 7.00 | 110 to 120 °C | CCCCC(Nc1cc(-c2ccc(-c3ccccc3)cc2)ncn1)C(=O)O (stereo not shown) [Example 1-56]
38 | 6.00 to 7.00 | 133 to 136 °C | O=C(O)C(Cc1ccccc1)Nc1cc(-c2ccc(OCc3ccccc3)cc2F)ncn1 (stereo not shown) [Example 1-57]
39 | > 7.00 | 112 to 115 °C | CN(c1cc(-c2ccc(OCc3ccccc3)cc2)ncn1)C(Cc1ccccc1)C(=O)O (stereo not shown) [Example 1-58]
40 | > 7.00 | 216 to 218 °C | O=C(O)[C@H](Cc1ccccc1)Nc1cc(-c2ccc(OCC3CC3)cc2)ncn1 [Example 2-1, N-{6-[4-(Cyclopropylmethoxy)phenyl]pyrimidin-4-yl}phenylalanine]
41 | > 7.00 | 90 to 93 °C | COc1cc(COc2ccc(-c3cc(NC(Cc4ccccc4)C(=O)O)ncn3)cc2)cc(OC)c1 (stereo not shown) [Example 2-2]
42 | > 7.00 | 175 to 177 °C | O=C(O)C(Cc1ccccc1)Nc1cc(-c2ccc(OCc3cccc(F)c3)cc2)ncn1 (stereo not shown) [Example 2-3]
43 | > 7.00 | 90 to 93 °C | COc1cccc(COc2ccc(-c3cc(NC(Cc4ccccc4)C(=O)O)ncn3)cc2)c1 (stereo not shown) [Example 2-4]
44 | < 6.00 | 223 to 227 °C | O=C(O)C(Cc1ccccc1)Nc1cc(-c2ccc(O)cc2)ncn1 (stereo not shown) [Example 2-5]
45 | > 7.00 | 220 to 223 °C (dec.) | O=C(O)C(Cc1ccccc1)Nc1cc(-c2ccc(OCc3ccccc3F)cc2)ncn1 (stereo not shown) [Example 2-6]
46 | > 7.00 | 228 to 230 °C (dec.) | O=C(O)C(Cc1ccccc1)Nc1cc(-c2ccc(OCc3ccc(F)cc3)cc2)ncn1 (stereo not shown) [Example 2-7]
47 | > 7.00 | 118 to 120 °C | O=C(O)C(Cc1ccccc1)Nc1cc(-c2ccc(OCC3CCCCC3)cc2)ncn1 (stereo not shown) [Example 2-8]
48 | > 7.00 | 209 to 211 °C | O=C(O)C(Cc1ccccc1)Nc1cc(-c2ccc(OCCn3cccc3)cc2)ncn1 (stereo not shown) [Example 2-9]
49 | > 7.00 | 205 to 208 °C | CCCCOc1ccc(-c2cc(NC(Cc3ccccc3)C(=O)O)ncn2)cc1 (stereo not shown) [Example 2-10]
50 | > 7.00 | 207 to 210 °C (dec.) | O=C(O)C(Cc1ccccc1)Nc1cc(-c2ccc(OCc3cc(F)cc(F)c3)cc2)ncn1 (stereo not shown) [Example 2-11]
